Experimental data from patent US11149046B2, “Antibacterial sideromycins” (Hsiri Therapeutics, Inc., priority 2014, dated 2021).
In brackets after ≈: the same amount, converted by molar mass. Several values for one entry are separate records, joined by “and”; a condition that tells them apart may be missing. Equal values may be shown once. Entries after “also recorded” stand apart in the source; their conditions may differ. Read-outs that look alike come from different tables or passages of the source.

Key:
S. aureus SG511 = assay: MIC determination; type: cell-based; details: iron deficient media
P. aeruginosa KW799/wt = assay: MIC determination; type: cell-based, Pseudomonas aeruginosa; details: for MIC: Pseudomonas aeruginosa, KW799/WT
Description: (§1) Table 3 that was included in the first Example 4 section provides antibacterial data for the first synthetic sideromycins we prepared and studied. The second Example 4 section elaborated and expanded on that data with inclusion of representative antibacterial data in the text and associated pictures of Petri dish assays. MIC (minimum inhibition concentration) is given in μM and AD (agar diffusion zones of inhibition are given in mm from Kirby-Bauer Petri dish growth inhibition studies).

M. luteus ATCC-10240 = assay: MIC determination; type: cell-based; details: iron deficient media
M. vaccae IMET-10760 = assay: MIC determination; type: cell-based; details: iron deficient media
[1] = test system: P. aeruginosa KW799/61 (permeability mutant); assay: microbe, parasite or virus in culture; type: cell-based, Pseudomonas aeruginosa
Description: (§2) MIC (minimum inhibition concentration) is given in μM and AD (agar diffusion zones of inhibition are given in mm from Kirby-Bauer Petri dish growth inhibition studies).

A. baumannii ATCC 17961 = assay: MIC determination; type: cell-based, Acinetobacter baumannii
Description: as §1

[2] = test system: E. coli DC2 (permeability mutant); assay: MIC determination; type: cell-based
Description: as §1

E. coli DC0 [3] = assay: MIC determination; type: cell-based; details: for MIC: Escherichia coli
Description: as §1

B. subtilis ATCC-6633 = assay: MIC determination; type: cell-based; details: iron deficient media
Pa4 = assay: MIC determination; type: cell-based, Pseudomonas aeruginosa; details: Pseudomonas aeruginosa; Table 5
Description: as §1

[4] = test system: Pa-Da-1304 CF patient isolate; assay: MIC determination; type: cell-based, Pseudomonas aeruginosa; details: Pseudomonas aeruginosa
Description: as §2
We obtained a clinical isolate of Pseudomonas from a cystic fibrosis patient.

Pa6 = assay: MIC determination; type: cell-based, Pseudomonas aeruginosa; details: Pseudomonas aeruginosa; Table 5; read-out: MIC
Description: as §2

[5] = test system: Acinetobacter baumannii ATCC 17961; assay: Agar diffusion (Kirby-Bauer) assay, with and without hydrogel; type: cell-based; details: Acinetobacter; FIG. 8, 9, 10
Description: as §1
We investigated whether the sideromycin absorbed in the gel be able to diffuse out of the gel and into the agar to effect antibacterial growth. As a control, the sideromycin alone, without gel, was added in a separate 9 mm well, as usual.
The second question was whether the sideromycin continue to be released and be able to effect bacterial growth inhibition over extended periods. Thus, additional identical agar plates were prepared and stored at 4° C. for 24, 48 and 72 hours to allow diffusion of the sideromycin (control and gel forms) into the agar before allowing the bacteria to grow in an incubator. Then after each time period, the Petri dishes were incubated at 37° C. for 20 hours to promote bacteria growth in the agar. […] The study has been extended to as long as 168 hours (one week) with retention of antibiotic effectiveness.

E. coli DC2 = assay: Agar diffusion (Kirby-Bauer) assay; type: cell-based; details: Table 5
Description: as §1

[6] = test system: Pseudomonas aeruginosa KW799/wt; assay: Agar diffusion (Kirby-Bauer) assay; type: cell-based; details: wild type Pseudomonas; FIG. 8, 9, 12; listed as YML-1-18
Description: as §1

E. coli DC0 [7] = assay: Agar diffusion (Kirby-Bauer) assay; type: cell-based; details: Table 5
Description: as §1

[8] = test system: Pseudomonas aeruginosa 01 (Pa01); assay: MIC determination; type: cell-based; details: Pseudomonas aeruginosa; Table 5; read-out: MIC
Description: as §1

[9] = iron deficient media, read-out: MIC in Fe(−)MHII Media

With `CC(=O)Oc1cccc(C(=O)NCCCCN(CC(=O)NC(C(=O)NC2C(=O)N3C2SC(C)(C)C3C(=O)[O-])c2ccccc2)C(=O)c2cccc(OC(C)=O)c2OC(C)=O)c1OC(C)=O.[Na+]` (stereo not drawn) [HKI-9924154] as the molecule, how does the “MIC in Fe(−)MHII Media” value (S. aureus SG511) read?
The value was greater than 10 µg/mL.

And the “MIC in Fe(−)MHII Media” value (P. aeruginosa KW799/wt; iron deficient media)?
The value was 0.04 to 0.052 µg/mL.

What about the “MIC in Fe(−)MHII Media” value (M. luteus ATCC-10240) of the same molecule?
The value was greater than 10 µg/mL.

And the “MIC in Fe(−)MHII Media” value (M. vaccae IMET-10760)?
The value was greater than 10 µg/mL.

And the “MIC in Fe(−)MHII Media” value ([1]; iron deficient media)?
Its value is 0.13 µg/mL.

What about the “MIC in Fe(−)MHII Media” value (A. baumannii ATCC 17961; iron deficient media) of the same molecule?
Its value is 0.313 µg/mL.

And the MIC (A. baumannii ATCC 17961; [9])?
The MIC was 0.34 µM.

What about the MIC (A. baumannii ATCC 17961; read-out: MIC) of the same molecule?
Its MIC is 0.34 µM.

And the “MIC in Fe(−)MHII Media” value ([2]; iron deficient media)?
Its value is less than 0.005 µg/mL.

And the “MIC in Fe(−)MHII Media” value (E. coli DC0 [3]; iron deficient media)?
Its value is less than 0.005 µg/mL.

And the “MIC in Fe(−)MHII Media” value (B. subtilis ATCC-6633)?
Its value is greater than 10 µg/mL.

With `CC(=O)Oc1cccc(C(=O)NCCCCN(CC(=O)N[C@@H](C(=O)N[C@@H]2C(=O)N3C2SC(C)(C)[C@@H]3C(=O)O)c2ccccc2)C(=O)c2cccc(OC(C)=O)c2OC(C)=O)c1OC(C)=O` (stereo partly drawn) [YML-I-18] as the molecule, how does the MIC (S. aureus SG511; Staphylococcus aureus, SG511, read-out: MIC in Fe(−)MHII Media) read?
The MIC was greater than 10 µg/mL.

What about the MIC (P. aeruginosa KW799/wt; Table 5, read-out: MIC) of the same molecule?
Its MIC is 0.0156 to 0.0313 µM (≈ 0.0143 to 0.0287 µg/mL).

What about the MIC (P. aeruginosa KW799/wt; [9]) of the same molecule?
The MIC was 0.0156 µM (≈ 0.0143 µg/mL).

What about the “MIC in Fe(−)MHII Media” value (P. aeruginosa KW799/wt; iron deficient media, listed as HKI-9924116) of the same molecule?
The value was “(0.0156 μM”.

What about the “increase in antibiotic activity over ampicillin” value (P. aeruginosa KW799/wt; several strains of P. aeruginosas (entries 1 and 2, Table 3)) of the same molecule?
Its value is 16000 fold.

And the MIC (Pa4)?
Its MIC is 0.03 µM (≈ 0.0275 µg/mL).

And the MIC (M. luteus ATCC-10240; Micrococcus luteus, ATCC10240, read-out: MIC in Fe(−)MHII Media)?
The MIC was greater than 10 µg/mL.

What about the MIC (M. vaccae IMET-10760; Mycolicibacterium vaccae, IMET10760, read-out: MIC in Fe(−)MHII Media) of the same molecule?
The MIC was greater than 10 µg/mL.

And the MIC ([1]; Pseudomonas aeruginosa, read-out: MIC in Fe(−)MHII Media)?
Its MIC is 0.052 µg/mL (≈ 0.0566 µM).

What about the MIC ([4]; Table 5) of the same molecule?
Its MIC is 0.4 to 0.75 µM (≈ 0.367 to 0.688 µg/mL).

And the MIC ([4]; clinical isolate from a cystic fibrosis patient)?
Its MIC is 0.4 to 0.75 µM (≈ 0.367 to 0.688 µg/mL).

What about the MIC (A. baumannii ATCC 17961; Acinetobacter baumannii, ATCC17961, iron deficient media, read-out: MIC in Fe(−)MHII Media) of the same molecule?
Its MIC is 0.313 µg/mL.

What about the MIC (A. baumannii ATCC 17961; Acinetobacter baumannii, ATCC17961, text, read-out: MIC) of the same molecule?
Its MIC is 0.156 µg/mL to 0.313 µg/mL and 0.34 µM.

And the MIC (A. baumannii ATCC 17961; iron deficient media, listed as HKI-9924116, read-out: MIC in Fe(−)MHII Media)?
Its MIC is 0.34 µM.

What about the MIC (A. baumannii ATCC 17961; iron deficient media, listed as YML-1-18, read-out: MIC in Fe(−)MHII Media) of the same molecule?
The MIC was 0.156 µM.

And the MIC (Pa6)?
Its MIC is greater than 100 µM.

And the “zones of inhibition (in words)” value [5]?
Its value is “impressive zones of inhibition”.

What about the “AD = agar diffusion inhibition zones” value (E. coli DC2) of the same molecule?
The value was “(AD = 40) mm”.

What about the “zones of inhibition (in words)” value [6] of the same molecule?
Its value is “impressive zones of inhibition; also recorded: potently active”.

What about the “AD = agar diffusion inhibition zones” value (E. coli DC0 [7]) of the same molecule?
The value was “(AD = 32) mm”.

What about the MIC ([2]; Escherichia coli, read-out: MIC in Fe(−)MHII Media) of the same molecule?
The MIC was less than 0.005 µg/mL.

And the MIC (E. coli DC0 [3]; DC0, iron deficient media, read-out: MIC in Fe(−)MHII Media)?
The MIC was less than 0.005 µg/mL.

And the MIC (E. coli DC0 [3]; representative strains of E. coli (entries 4-5, Table 3: DC0, DC2), read-out: MIC)?
The MIC was less than 0.005 µg/mL.

What about the MIC [8] of the same molecule?
Its MIC is 0.0156 µM (≈ 0.0143 µg/mL).

And the MIC (B. subtilis ATCC-6633; Bacillus subtilis, ATCC6633, read-out: MIC in Fe(−)MHII Media)?
The MIC was greater than 10 µg/mL.
